Like-named read-outs stand apart in the source and are kept apart here.
Columns and labels:
[1] = tested on: human TERT expression (hTERT mRNA); experiment: Quantitative real-time RT-PCR of hTERT mRNA expression (Ct, transcripts) in compound-treated cells; assay type: cell-based
Procedure, shortened: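 Read-out is cycle threshold, the cycle at which probe fluorescence released by Taq 5′-nuclease activity crosses a set level; Ct falls as hTERT mRNA rises. cDNA of treated and untreated cells was compared, with starting transcripts quantified against a known-cDNA standard curve.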

viable cells in culture = experiment: Cell viability assay (CellTiter-Glo Luminescent Cell Viability Assay, ATP quantitation, percent of vehicle control)
Experimental: Cell viability is determined using a homogeneous method, such as CellTiter-Glo® Luminescent Cell Viability Assay (Promega Corporation, Madison, WI.) to determine the number of viable cells in culture These assays are based on quantitation of the ATP present, which signals the presence of metabolically active cells. Luminescent values of compound treated cells are compared to that of cells treated with vehicle alone to determine the average cell viability as a percent of control.

Row | SMILES | Average Number of hTERT Transcripts [1] | Average Cell Viability after 24 Hours (% DMSO) (viable cells in culture) | Average Number of hTERT Transcripts ([1]; quantitative real-time RT-PCR)
1 | O=C(NC(c1ccccc1)c1ccc(Br)cc1)c1cccc(F)c1 (stereo not drawn) [compound 1408] | 3.47 | 89.70 | –
2 | CC(=O)Nc1ccccc1NS(=O)(=O)c1cccs1 [compound 1391] | 4.95 | 87.67 | –
3 | O=C(CSc1ccc(-c2ccccn2)nn1)Nc1ccc2c(c1)OCCO2 [compound 1256] | – | 73.30 | 33.82
4 | O=C(Nc1nc(COc2ccccc2)cs1)c1sc2cc(Cl)ccc2c1Cl [compound 1410] | 8.90 | 75.12 | –
5 | Cc1nc(-n2nc(C)c(CC(=O)N3CCN(c4ccc(F)cc4)CC3)c2O)sc1C [compound 1125] | – | 78.39 | 82.95
6 | CN(CC1CCCO1)S(=O)(=O)c1ccc(C(=O)Nc2nc(-c3ccccn3)cs2)cc1 (stereo not drawn) [compound 1510] | 76.03 | 83.99 | –
7 | CC1=C(C(=O)OC2CCCCCC2)C(c2ccc([N+](=O)[O-])cc2)C2=C(CC(C)(C)CC2=O)N1 (stereo not drawn) [compound 1246] | – | 83.08 | 27.65
8 | O=C(NCCc1ccccc1)c1ccc(NC(=O)C2(c3ccccc3)CCCC2)cc1 [compound 1428] | 7.81 | 92.20 | –
9 | Cc1cccnc1Nc1nc(-c2ccccn2)cs1 [compound 1195] | – | 95.66 | 220.50
10 | O=C(N/N=C/c1cccc2cccnc12)c1ccc2c(c1)OCO2 [compound 1283] | – | 68.25 | 18.81
11 | CC1=C(C(=O)OC2CCCC2)C(c2ccc(Br)cc2)C2=C(CC(C)(C)CC2=O)N1 (stereo not drawn) [compound 1247] | – | 95.77 | 74.16
12 | CC(=O)N1C(=O)C(=O)c2cc(Cl)ccc21 [compound 1336] | – | 100.05 | 7.64
13 | Cc1ccc(NC(=O)c2cc([N+](=O)[O-])ccc2O)cc1 [compound 1338] | – | 80.45 | 49.42
14 | O=C(Nc1ccccc1OC(F)F)C(c1ccccc1)c1ccccc1 [compound 1436] | 8.14 | 82.48 | –
15 | O=C(O)c1c(-c2ccccc2)c2oc3ccccc3c2[nH]c1=O [compound 1238] | – | 89.10 | 5.16
16 | CCOC(=O)N1CCN(C(=O)Cc2c(C)nn(-c3nc(C)c(C)s3)c2O)CC1 [compound 1127] | – | 92.15 | 20.86
17 | CCOC(=O)c1sc(-n2nc(C)c(Cc3ccc(C)cc3)c2O)nc1C [compound 1130] | – | 70.45 | 31.93
18 | COC(=O)COc1ccc(S(=O)(=O)N(C)Cc2ccccc2)cc1 [compound 1415] | 30.51 | 79.96 | –
19 | Cc1ccc(-c2noc(CN3CCOCC3)n2)cc1 [compound 1333] | – | 96.79 | 3.71
20 | COc1cccc(C=NNC(=O)C(C)Nc2cccc3ccccc23)c1O (stereo not drawn) [compound 1279] | – | 63.90 | 25.71
21 | CCCCOCCCNC(=O)c1cc(-c2cccs2)on1 [compound 1507] | 58.76 | 102.58 | –
22 | CC(C)CNC(=O)c1cc(-c2cccs2)on1 [compound 1189] | – | 83.26 | 73.15
23 | O=C(O)c1ccc(NC(=S)NC(=O)c2cccc3ccccc23)cc1 [compound 1383] | 53.78 | 74.00 | –
24 | O=C(NCCc1ccncc1)C(F)(F)F [compound 1356] | – | 101.39 | 5.18

Row | SMILES | Average Number of hTERT Transcripts [1] | Average Cell Viability after 24 Hours (% DMSO) (viable cells in culture) | Average Number of hTERT Transcripts ([1]; quantitative real-time RT-PCR)
25 | Brc1ccc(CSc2ccc(-c3ccccn3)nn2)cc1 [compound 1258] | – | 53.72 | 12.89
26 | O=C(N/N=C/c1cc(Cl)ccc1O)c1ccc(Br)cc1 [compound 1264] | – | 64.22 | 33.41
27 | COC(=O)COc1ccc(S(=O)(=O)N2CCCC2)cc1Cl [compound 1437] | 22.13 | 79.26 | –
28 | Cc1cccn2c(=O)cc(COc3ccc(NC(=O)c4cccs4)cc3)nc12 [compound 1454] | 3.99 | 97.09 | –
29 | Cc1ccc(Nc2nc3nonc3nc2Nc2ccccc2F)cc1 [compound 1230] | – | 72.00 | 17.54
30 | COc1cc(OC)cc(C(=O)Nc2nc(-c3ccccn3)cs2)c1 [compound 1172] | – | 88.81 | 28.72
31 | Oc1ccc2nc(N3CCOCC3)sc2c1 [compound 1252] | – | 96.63 | 4.21
32 | COc1ccc(COC(=O)C2=C(C)NC3=C(C(=O)CC(c4ccco4)C3)C2c2cccs2)cc1 (stereo not drawn) [compound 1243] | – | 99.98 | 5.18
33 | Cc1nn2c(=O)cc(-c3ccccc3)[nH]c2c1-c1ccc(F)cc1 [compound 1152] | – | 73.68 | 64.86
34 | O=C(NCC1CCCO1)c1cc(-c2cccs2)on1 (stereo not drawn) [compound 1206] | – | 83.74 | 80.15
35 | CCOc1cc(Br)cc(/C=N/NC(=O)COc2cccc(C)c2)c1O [compound 1262] | – | 57.61 | 8.78
36 | COc1ccc(-c2cc(=O)n3nc(C)c(-c4ccc(F)cc4)c3[nH]2)cc1 [compound 1154] | – | 69.15 | 48.37
37 | Cn1c(=O)c2c(nc(SCc3cc4c(cc3Cl)OCO4)n2C)n(C)c1=O [compound 1235] | – | 75.75 | 153.66
38 | COc1ccc(-c2n[nH]c3c2C(c2ccc(O)cc2)N(c2ccc(Br)cc2)C3=O)cc1 (stereo not drawn) [compound 1193] | – | 22.74 | 3.56
39 | CCc1ccc(S(=O)(=O)N(C(=O)c2ccccc2)c2ccc3oc(C)c(C(C)=O)c3c2)cc1 [compound 1236] | – | 86.61 | 5.24
40 | Cc1cc(Br)ccc1NC(=O)Cn1ncc2c(=O)oc3ccccc3c21 [compound 1327] | – | 101.34 | 4.67
41 | Oc1cc(-c2ccc(F)cc2)nn1-c1nc2ccccc2[nH]1 [compound 1110] | – | 100.67 | 86.68
42 | O=C(NCCc1ccccc1)c1cc(-c2cccs2)on1 [compound 1185] | – | 80.02 | 20.89
43 | CCCCNC(=O)c1cc(-c2ccco2)on1 [compound 1191] | – | 95.11 | 164.47
44 | C=C(C)Cn1c(CCO)nc2ccccc21 [compound 1368] | – | 106.63 | 9.25
45 | Oc1cc(CSc2ccc(Cl)cc2)nn1-c1ccccc1 [compound 1116] | – | 75.26 | 102.70
46 | O=C(COc1ccc(F)cc1)N/N=C/c1cccc2cccnc12 [compound 1287] | – | 67.01 | 12.08
47 | O=C(CCN1C(=O)c2cccc3cccc(c23)C1=O)Nc1ccon1 [compound 1349] | – | 76.50 | 12.52
48 | CC(=O)c1ccc(NC(=S)Nc2ccc(Br)c(Cl)c2)cc1 [compound 1439] | 11.63 | 51.61 | –
